Tested on: genetically sound-sensitive mice (audiogenic seizures)
Test: audiogenic seizures test in sound-susceptible mice
Format: in vivo
Conditions: Mus musculus, ip, 1 h; dose producing 50% protection against clonic convulsions relative to control; intraperitoneally 60 minutes before induction of audiogenic seizures (90 dB, 10–20 kHz, 30 seconds); Probit Analysis; read-out: Clonic Convulsion (ED50)
From the text: The potent activity of the compounds of formula (I) or (II), or their pharmaceutically acceptable salts, as anticonvulsants was evidenced by audiogenic seizures test induced in sound-susceptible mice. These examples illustrate the invention without in any way limiting its scope. The objective of the following pharmacological test is to evaluate the anticonvulsant potency of a compound in sound-susceptible mice, a genetic animal model with reflex seizures. In this model of primary generalised epilepsy, seizures are evoked without electrical or chemical stimulation and the seizure types are, at least in part, similar in their clinical phenomenology to seizures occurring in man (Löscher W. & Schmidt D., Epilepsy Res. (1998), 2, p. 145–181; Buchhalter J. R., Epilepsia (1993), 34, S31–S41). The results obtained with the tested compounds of formula (I) and (II) show a strong pharmacological effect (see Table 4).
In order to study the activity of the compounds of formula (I) and (II) including the (S) and (R) forms of ethyl 4-{[1-(aminocarbonyl)propyl]amino}butanoate, as anticonvulsant, the applicant performed out a series of experiments based on the audiogenic seizures test in mice.
The objective of the following pharmacological test is to evaluate the anticonvulsant potency of a compound in sound-susceptible mice, a genetic animal model with reflex seizures. In this model of primary generalised epilepsy, seizures are evoked without electrical or chemical stimulation and the seizure types are, at least in part, similar in their clinical phenomenology to seizures occurring in man (Löscher W. and Schmidt D., Epilepsy Res. (1998), 2, p. 145–181; Buchhalter J. R., Epilepsia (1993), 34, S31–S41).
Male or female genetically sound-sensitive mice (14–28 g; N=10), derived from a DBA (Dilute Brown Agouti) strain originally selected by Dr. Lehmann of the Laboratory of Acoustic Physiology (Paris) and bred in the UCB Pharma Sector husbandry unit since 1978, were used. The experimental design consisted of several groups, one group receiving the vehicle control and the other groups different doses of the test-compound. The compounds were administered intraperitoneally 60 minutes before the induction of audiogenic seizures.
For testing, the animals were placed in small cages, one mouse per cage, in a sound-attenuated chamber. After a period of orientation of 30 seconds, the acoustic stimulus (90 dB, 10–20 kHz) was delivered for 30 seconds via loud speakers positioned above each cage; During this interval, the mice were observed and the presence of the 3 phases of the seizure activity, namely wild running, clonic and tonic convulsions, was recorded. The proportion of mice protected against wild running, clonic and tonic convulsions, respectively, was calculated.
For active compounds, an ED50 value, i.e. the dose producing 50% protection relative to the control group, together with 95% confidence limits, was calculated using a Probit Analysis (SAS/STATR Software, Version 6.09, PROBIT procedure) of the proportions of protected mice for each of the 3 phases of the seizure activity.

First: CC[C@H](NCCCC(=O)OCCC12CC3CC(CC(C3)C1)C2)C(N)=O [I, 2-(1-adamantyl)ethyl 4-{[(1S)-1-(aminocarbonyl)propyl]amino}butanoate]
Second: CCCOC(=O)CCCN[C@@H](CC)C(N)=O [P, propyl 4-{[(1S)-1-(aminocarbonyl)propyl]amino}butanoate]
The ED50 of the first is lower: 130 µmol/kg for the first, 200 µmol/kg for the second.

First: CCCCOC(=O)CCCN[C@@H](CC)C(N)=O [K, butyl 4-{[(1S)-1-(aminocarbonyl)propyl]amino}butanoate]
Second: CCCCCCCCOC(=O)CCCN[C@@H](CC)C(N)=O [L, octyl 4-{[(1S)-1-(aminocarbonyl)propyl]amino}butanoate]
The ED50 of the first is higher: 1000 µmol/kg for the first, 160 µmol/kg for the second.

First: CCOC(=O)CCCN[C@@H](CC)C(N)=O [D, ethyl 4-{[(1S)-1-(aminocarbonyl)propyl]amino}butanoate]
Second: CCOC(=O)CCCNC(CC)C(N)=O (racemic) [C, ethyl 4-{[1-(aminocarbonyl)propyl]amino}butanoate]
The ED50 of the first is lower: 68 µmol/kg for the first, 320 µmol/kg for the second.

First: CCC(NCCCC(=O)OC(C)(C)C)C(N)=O [H, tertiobutyl 4-{[(1S)-1-(aminocarbonyl)propyl]amino}butanoate]
Second: CC[C@H](NCCCC(=O)OC)C(N)=O [F, methyl 4-{[(1S)-1-(aminocarbonyl)propyl]amino}butanoate]
The ED50 of the first is higher: 520 µmol/kg for the first, 160 µmol/kg for the second.

First: CC[C@H](NCCCC(=O)OC1CCCC1)C(N)=O [J, cyclopentyl 4-{[(1S)-1-(aminocarbonyl)propyl]amino}butanoate]
Second: CC[C@H](NCCCC(=O)OC(C)C)C(N)=O [G, isopropyl 4-{[(1S)-1-(aminocarbonyl)propyl]amino}butanoate]
The ED50 of the first is higher: 340 µmol/kg for the first, 150 µmol/kg for the second.

Compared with `CC[C@H](NCCCC(=O)SC(C)C)C(N)=O` [W, S-isopropyl 4-{[(1S)-1-(aminocarbonyl)propyl]amino}butanethioate], `CC[C@H](NCCCC(=O)OCC(C)C)C(N)=O` [M, isobutyl 4-{[(1S)-1-(aminocarbonyl)propyl]amino}butanoate] is lower in ED50: 540 µmol/kg for the first, 360 µmol/kg for the second.

Going from `CC[C@H](NCCCC(=O)OCc1ccccc1)C(N)=O` [Compound N, benzyl 4-{[(1S)-1-(aminocarbonyl)propyl]amino)butanoate] to `CCCC(CCC)COC(=O)CCCN[C@@H](CC)C(N)=O` [O, 2-propylpentyl 4-{[(1S)-1-(aminocarbonyl)propyl]amino}butanoate], the ED50 falls from 220 µmol/kg to 120 µmol/kg.

Source: patent publication US7112612B2, “N-alkylated GABA compounds, processes for their preparation and their use as medicaments” (UCB S.A., priority 2000, dated 2006)
